From US8557796B2, “Substituted 1-oxa-2,8-diaza-spiro [4,5] dec-2-ene derivatives and related treatment methods” (Gruenenthal GmbH, priority 2001, dated 2013)

test system: batrachotoxin (BTX) binding site (binding site 2) of the sodium channel; assay: Bond test on the sodium channel, binding site 2 (BTX bond), [3H]-batrachotoxinin A20 α-benzoate displacement; settings: rat cerebrocortex synaptosomes

SMILES | BTX bond, 10 μM, % inhibition
CN(C)S(=O)(=O)N1CCC2(CC1)CC(C(=O)N1CCN(CCCc3ccccc3)CC1)=NO2 [Example 80, 3-[4-(3-phenyl-propyl)-piperazine-1-carbonyl]-1-oxa-2,8-diaza-spiro[4,5]dec-2-ene-8-sulphonic acid dimethylamide] | 44%
O=C(C1=NOC2(CCN(S(=O)(=O)c3cccc(C(F)(F)F)c3)CC2)C1)N1CCN(CCCc2ccccc2)CC1 [Example 83, [4-(3-phenyl-propyl)-piperazin-1-yl]-[8-(3-trifluoromethyl-benzenesulphonyl)-1-oxa-2,8-diaza-spiro[4,5]dec-2-en-3-yl]-methanone] | 72%
CC(NC(=O)C1=NOC2(CCN(S(=O)(=O)c3cccs3)CC2)C1)c1cccc2c1OCCO2 (centres unmarked) [Example 84, 8-(thiophene-2-sulphonyl)-1-oxa-2,8-diaza-spiro[4,5]dec-2-ene-3-carboxylic acid [1-(2,3-dihydro-benzo[1,4]dioxin-5-yl)-ethyl]-amide] | 58%
CCCC(=O)N1CCC2(CC1)CC(C(=O)Nc1ccccc1)=NO2 [Example 85, 8-butyryl-1-oxa-2,8-diaza-spiro[4,5]dec-2-ene-3-carboxylic acid phenylamide] | 62%
COCCOCC(=O)N1CCC2(CC1)CC(C(=O)NCc1ccccc1)=NO2 [Example 87, 8-[2-(2-methoxy-ethoxy)-acetyl]-1-oxa-2,8-diaza-spiro[4,5]dec-2-ene-3-carboxylic acid benzylamide] | 42%
Cc1cc(C(=O)N2CCC3(CC2)CC(C(=O)NCC(C)C)=NO3)ccc1Br [Example 88, 8-(4-bromo-3-methyl-benzoyl)-1-oxa-2,8-diaza-spiro[4,5]dec-2-ene-3-carboxylic acid isobutyl-amide] | 45%
CN(CCCNC(=O)C1=NOC2(CCN(S(=O)(=O)c3ccc(Cl)s3)CC2)C1)c1ccccc1 [Example 89] | 81%
O=C(C1=NOC2(CCN(S(=O)(=O)c3ccc(Cl)s3)CC2)C1)N1CCN(c2ccc(F)cc2)CC1 [Example 91, [8-(5-chloro-thiophene-2-sulphonyl)-1-oxa-2,8-diaza-spiro[4,5]dec-2-en-3-yl]-[4-(4-fluorophenyl)-piperazin-1-yl]-methanone] | 72%
CN(Cc1cccnc1)C(=O)C1=NOC2(CCN(S(=O)(=O)c3cc(Cl)ccc3Cl)CC2)C1 [Example 92, 8-(2,5-dichloro-benzenesulphonyl)-1-oxa-2,8-diaza-spiro[4,5]dec-2-ene-3-carboxylic acid methyl-pyridin-3-ylmethyl-amide] | 65%
O=C(Cc1ccc(F)c(F)c1)N1CCN(C(=O)C2=NOC3(CCN(S(=O)(=O)c4cccc(C(F)(F)F)c4)CC3)C2)CC1 [Example 93] | 52%
O=C(NCc1cccs1)C1=NOC2(CCN(C(=O)COc3cccc(Cl)c3)CC2)C1 [Example 96, 8-[2-(3-chloro-phenoxy)-acetyl]-1-oxa-2,8-diaza-spiro[4,5]dec-2-ene-3-carboxylic acid (thiophen-2-ylmethyl)-amide] | 72%
O=C(C1=NOC2(CCN(S(=O)(=O)c3ccc(OC(F)(F)F)cc3)CC2)C1)N(CCc1ccccc1)Cc1ccccc1 [Example 97, 8-(4-trifluoromethoxy-benzenesulphonyl)-1-oxa-2,8-diaza-spiro[4,5]dec-2-ene-3-carboxylic acid benzyl-phenethyl-amide] | 79%
O=C(C1=NOC2(CCN(S(=O)(=O)c3cc(Cl)ccc3Cl)CC2)C1)N(CCc1ccccc1)Cc1ccccc1 [Example 98, 8-(2,5-dichloro-benzenesulphonyl)-1-oxa-2,8-diaza-spiro[4,5]dec-2-ene-3-carboxylic acid benzyl-phenethyl-amide] | 56%
N#CCCN(Cc1cccnc1)C(=O)C1=NOC2(CCN(S(=O)(=O)c3cc(Cl)ccc3Cl)CC2)C1 [Example 99, 8-(2,5-dichloro-benzenesulphonyl)-1-oxa-2,8-diaza-spiro[4,5]dec-2-ene-3-carboxylic acid (2-cyano-ethyl)-pyridin-3-ylmethyl-amide] | 50%
O=C(NCc1ccccc1)C1=NOC2(CCN(C(=O)c3ccncc3)CC2)C1 [Example 102, 8-(pyridine-4-carbonyl)-1-oxa-2,8-diaza-spiro[4,5]dec-2-ene-3-carboxylic acid benzylamide] | 43%
C=C(C)CN(CC)C(=O)C1=NOC2(CCN(S(=O)(=O)c3ccc(OC(F)(F)F)cc3)CC2)C1 [Example 103, 8-(4-trifluoromethoxy-benzenesulphonyl)-1-oxa-2,8-diaza-spiro[4,5]dec-2-ene-3carboxylic acid ethyl-(2-methyl-allyl)-amide] | 53%
O=C(NCc1cccs1)C1=NOC2(CCN(C(=O)C=Cc3ccccc3)CC2)C1 [Example 106] | 62%

SMILES | BTX bond, 10 μM, % inhibition
O=C(NCC1CC1)C1=NOC2(CCN(C(=O)c3ccc(SC(F)(F)F)cc3)CC2)C1 [Example 108, 8-(4-trifluoromethylsulphanyl-benzoyl)-1-oxa-2,8-diaza-spiro[4,5]dec-2-ene-3-carboxylic acid cyclopropylmethyl-amide] | 43%
CCSc1ncccc1C(=O)N1CCC2(CC1)CC(C(=O)NCc1ccccc1)=NO2 [Example 115, 8-(2-ethylsulphanyl-pyridine-3-carbonyl)-1-oxa-2,8-diaza-spiro[4,5]dec-2-ene-3-carboxylic acid benzylamide] | 48%
O=C(C1=NOC2(CCN(S(=O)(=O)c3cccc(C(F)(F)F)c3)CC2)C1)N1CCN(c2cc(C(F)(F)F)ccn2)CC1 [Example 119] | 72%
COc1cccc(CCNC(=O)C2=NOC3(CCN(S(=O)(=O)c4ccc(F)cc4)CC3)C2)c1 [Example 124, 8-(4-fluoro-benzenesulphonyl)-1-oxa-2,8-diaza-spiro[4,5]dec-2-ene-3-carboxylic acid [2-(3-methoxy-phenyl)-ethyl]-amide] | 54%
Cc1oc(C(C)(C)C)cc1C(=O)N1CCC2(CC1)CC(C(=O)NC1CCCC1)=NO2 [Example 126, 8-(5-tert-butyl-2-methyl-furan-3-carbonyl)-1-oxa-2,8-diaza-spiro[4,5]dec-2-ene-3-carboxylic acid cyclopentylamide] | 56%
O=C(NCc1cccs1)C1=NOC2(CCN(S(=O)(=O)c3ccc(Cl)cc3)CC2)C1 [Example 127, 8-(4-chloro-benzenesulphonyl)-1-oxa-2,8-diaza-spiro[4,5]dec-2-ene-3-carboxylic acid (thiophen-2-ylmethyl)-amide] | 70%
Cc1ccccc1N1CCN(C(=O)C2=NOC3(CCN(S(=O)(=O)Cc4ccccc4)CC3)C2)CC1 [Example 133, (8-phenylmethanesulphonyl-1-oxa-2,8-diaza-spiro[4,5]dec-2-en-3-yl)-(4-o-tolyl-piperazin-l-yl)-methanone] | 47%
O=C(NCc1cccs1)C1=NOC2(CCN(C(=O)c3ccc(SC(F)(F)F)cc3)CC2)C1 [Example 135, 8-(4-trifluoromethylsulphanyl-benzoyl)-1-oxa-2,8-diaza-spiro[4,5]dec-2-ene-3-carboxylic acid (thiophen-2-ylmethyl)-amide] | 85%
O=C(NCc1ccccc1)C1=NOC2(CCN(S(=O)(=O)c3cccs3)CC2)C1 [Example 136, 8-(thiophene-2-sulphonyl)-1-oxa-2,8-diaza-spiro[4,5]dec-2-ene-3-carboxylic acid benzylamide] | 44%
CC(NC(=O)C1=NOC2(CCN(S(=O)(=O)c3ccc(Cl)s3)CC2)C1)c1cccc2c1OCCO2 (centres unmarked) [Example 140, 8-(5-chloro-thiophene-2-sulphonyl)-1-oxa-2,8-diaza-spiro[4,5]dec-2-ene-3-carboxylic acid [1-(2,3-dihydro-benzo[1,4]dioxin-5-yl)-ethyl]-amide] | 60%
O=C(NCc1cccs1)C1=NOC2(CCN(C(=O)c3ccc(Br)cc3)CC2)C1 [Example 141] | 61%
CN(C)S(=O)(=O)N1CCC2(CC1)CC(C(=O)N1CCN(C3CCCCCC3)CC1)=NO2 [Example 144, 3-(4-cycloheptyl-piperazine-1-carbonyl)-1-oxa-2,8-diaza-spiro[4,5]dec-2-ene-8 sulphonic acid dimethylamide] | 53%
O=C(NCc1cccs1)C1=NOC2(CCN(C(=O)c3cccc(Cl)c3F)CC2)C1 [Example 146, 8-(3-chloro-2-fluorobenzoyl)-1-oxa-2,8-diaza-spiro[4,5]dec-2-ene-3-carboxylic acid (thiophen-2-ylmethyl)-amide] | 67%
CC(Oc1ccccc1)C(=O)N1CCC2(CC1)CC(C(=O)NCc1ccccc1)=NO2 (centres unmarked) [Example 149, 8-(2-phenoxy-propionyl)-1-oxa-2,8-diaza-spiro[4,5]dec-2-ene-3-carboxylic acid benzylamide] | 40%
Cc1ccc(F)cc1S(=O)(=O)N1CCC2(CC1)CC(C(=O)NCc1cccs1)=NO2 [Example 150, 8-(5-fluoro-2-methyl-benzenesulphonyl)-1-oxa-2,8-diaza-spiro[4,5]dec-2-ene-3-carboxylic acid (thiophen-2-ylmethyl)-amide] | 86%
O=C(NCc1cccs1)C1=NOC2(CCN(C(=O)c3ccccc3Cl)CC2)C1 [Example 152, 8-(2-chloro-benzoyl)-1-oxa-2,8-diaza-spiro[4,5]dec-2-ene-3-carboxylic acid (thiophen-2-ylmethyl)-amide] | 56%
O=C(NC1CCCC1)C1=NOC2(CCN(C(=O)c3cccnc3Oc3ccccc3)CC2)C1 [Example 153, 8-(2-phenoxy-pyridine-3-carbonyl)-1-oxa-2,8-diaza-spiro[4,5]dec-2-ene-3-carboxylic acid cyclopentylamide] | 41%

same assay, conditions: rat cerebrocortex synaptosomes, 10 µM

SMILES | BTX bond, 10 μM, % inhibition
COc1ccc(S(=O)(=O)N2CCC3(CC2)CC(C(=O)NC2CCCC2OCc2ccccc2)=NO3)cc1 (centres unmarked) [Example 121, 8-(4-methoxy-benzenesulphonyl)-1-oxa-2,8-diaza-spiro[4,5]dec-2-ene-3-carboxylic acid (2-benzyloxy-cyclopentyl)-amide] | 42%
